SMILES strings stand for the structures. ≈ marks a conversion by molar mass, not a printed value.

What all share (assay): ≥ marks a high value that may be exact or a test limit, other limits are often not marked, values filed in µg/mL are converted to µM
Assay [1] has as its system Escherichia coli K12 MG1655.
The test system of assay [2] is Escherichia coli ATCC 25922.
Assay [3] relates to Pseudomonas aeruginosa PAO1.
Assay [4] concerns Salmonella enterica serovar Typhimurium.
The test system of assay [5] is Staphylococcus aureus ATCC 25923.
The test system of assay [6] is Clavibacter michiganensis subsp. michiganensis DSM 46294.
The test system of assay [7] is Pectobacterium carotovorum subsp. carotovorum DSM 30168.
Assay [8] concerns Pseudomonas corrugata DSM 7228.
The subject of assay [9] is Pseudomonas syringae pv. syringae DSM 10604.
Assay [10] deals with Pseudomonas syringae pv. tomato DC3000.
The test system of assay [11] is Xanthomonas vesicatoria DSM 50861.
For assay [12], the system named is Bacillus subtilis ATCC 6633.
Assay [13] relates to Klebsiella pneumoniae ATCC 10031.
Assay [14] has as its system Micrococcus luteus ATCC 10240.
The subject of assay [15] is Pseudomonas aeruginosa ATCC 27853.
Assay [16] relates to Salmonella enterica subsp. enterica serovar Typhimurium ATCC 14028.
The test system of assay [17] is Shigella dysenteriae ATCC 9752.
The subject of assay [18] is Staphylococcus aureus ATCC 6538P.
The test system of assay [19] is Staphylococcus epidermidis ATCC 12228.
The test system of assay [20] is Candida albicans CGMCC 2.2086.
For assay [21], the system named is Candida parapsilosis CGMCC 2.3989.
Assay [22] relates to Candida tropicalis CGMCC 2.1975.
The subject of assay [23] is Escherichia coli 078.
Assay [24] has as its system Escherichia coli K88.
Assay [25] deals with Escherichia coli K99.
The subject of assay [26] is Escherichia coli UB1005.
The test system of assay [27] is Salmonella enterica subsp. enterica serovar Pullorum ATCC 7913.
For assay [28], the system named is Salmonella enterica subsp. enterica serovar Typhimurium C77-31.
For assay [29], the system named is Staphylococcus aureus ATCC 43300.
Assay [30] concerns Erwinia amylovora PMV 6076.
Assay [31] has as its system Pseudomonas syringae pv. syringae EPS 94.
Assay [32] concerns Xanthomonas campestris pv. Vesicatoria 2133-2.

The term MIC denotes the least concentration at which growth counts as inhibited. In turn, `CC(C)C[C@H](NC(=O)[C@H](CCCCN)NC(=O)[C@@H](N)CCCN=C(N)N)C(=O)N[C@@H](C)C(=O)N[C@@H](Cc1ccccc1)C(=O)N[C@@H](CCCCN)C(=O)N1CCC[C@H]1C(=O)N[C@@H](CC(C)C)C(=O)N[C@@H](CCCCN)C(=O)N[C@@H](CCCCN)C(=O)N[C@@H](Cc1ccccc1)C(=O)N[C@@H](Cc1ccccc1)C(=O)N[C@@H](CO)C(=O)N[C@@H](Cc1c[nH]c2ccccc12)C(=O)N[C@@H](CCCCN)C(=O)N[C@@H](CO)C(=O)O` [RKLAFKPLKKFFSWKS] registered an MIC in assay [1] of 7.95 µM (≈ 16 µg/mL).
As to `CC[C@H](C)[C@H](NC(=O)[C@@H](NC(=O)[C@H](CS)NC(=O)[C@@H](NC(=O)[C@H](CCCN=C(N)N)NC(=O)[C@H](CS)NC(=O)[C@H](CCCN=C(N)N)NC(=O)[C@H](CC(C)C)NC(=O)[C@H](CCC(N)=O)NC(=O)[C@@H](N)C(C)C)C(C)C)C(C)C)C(=O)N[C@@H](CCCN=C(N)N)C(=O)N[C@@H](CCCCN)C(=O)O` [VQLRCRVCVIRK], the minimum inhibitory concentration (MIC) stood at 21.7 µM (≈ 32 µg/mL) in [2], 43.5 µM (≈ 64 µg/mL) in assay [3], 21.7 µM (≈ 32 µg/mL) in [4] and 43.5 µM (≈ 64 µg/mL) in [5].
Take `CC[C@H](C)[C@H](NC(=O)[C@H](C)NC(=O)[C@H](CC(C)C)NC(=O)[C@H](CCCN=C(N)N)NC(=O)[C@H](CC(C)C)NC(=O)[C@@H](NC(=O)[C@H](CCCN=C(N)N)NC(=O)[C@H](CC(C)C)NC(=O)[C@@H](NC(=O)[C@H](CC(C)C)NC(=O)[C@H](CCCN=C(N)N)NC(=O)[C@H](CCCN=C(N)N)NC(=O)[C@@H](N)CCCCN)[C@@H](C)CC)[C@@H](C)CC)C(=O)N[C@@H](CCCN=C(N)N)C(=O)N[C@H](C(=O)N[C@@H](CC(C)C)C(=O)N[C@H](C(=O)N[C@@H](CCCCN)C(=O)N[C@@H](CCCCN)C(=O)N[C@@H](CCCN=C(N)N)C(N)=O)C(C)C)[C@@H](C)CC` [KRRLILRILRLAIRILVKKR]: the MIC in assay [6] came to 0.989 µM (≈ 2.5 µg/mL); in [7] it was 3.96 µM (≈ 10 µg/mL); in assay [8], 3.96 µM (≈ 10 µg/mL); in assay [9] it was 3.96 µM (≈ 10 µg/mL); in assay [10] it was 3.96 µM (≈ 10 µg/mL); in assay [11], 0.989 µM (≈ 2.5 µg/mL).
Regarding `CC(C)C[C@H](NC(=O)[C@H](Cc1c[nH]c2ccccc12)NC(=O)CNC(=O)[C@H](CC(C)C)NC(=O)[C@@H](N)Cc1ccccc1)C(=O)N[C@@H](Cc1ccccc1)C(=O)N[C@@H](CCCCN)C(=O)N[C@@H](Cc1c[nH]c2ccccc12)C(=O)N[C@@H](C)C(=O)N[C@@H](Cc1c[nH]c2ccccc12)C(=O)N[C@@H](CCCCN)C(N)=O` [FLGWLFKWAWK], the MIC in assay [12] is 4.25 µM (≈ 6.3 µg/mL); in assay [2], 16.9 µM (≈ 25 µg/mL); in assay [13], 8.44 µM (≈ 12.5 µg/mL); in assay [14] it was 2.09 µM (≈ 3.1 µg/mL); in assay [15], over 135 µM; in assay [16], 67.5 µM (≈ 99.9 µg/mL). Also, the results for the MIC in assay [17], in assay [18] and in [19] were 8.44 µM (≈ 12.5 µg/mL), 4.25 µM (≈ 6.3 µg/mL) and 4.25 µM (≈ 6.3 µg/mL), respectively.
On to `CC[C@H](C)[C@H](NC(=O)[C@H](CCCN=C(N)N)NC(=O)[C@H](C)NC(=O)[C@H](C)N)C(=O)N[C@H](C(=O)N[C@@H](CC(C)C)C(=O)N[C@@H](CCCN=C(N)N)C(=O)N[C@@H](Cc1ccc(O)cc1)C(=O)N[C@@H](CCCN=C(N)N)C(=O)N[C@@H](Cc1ccccc1)C(=O)N[C@@H](CCCN=C(N)N)C(N)=O)[C@@H](C)CC` [AARIILRYRFR], for which the MIC in assay [20] is at least 128 µM; in assay [21], at least 64 µM; in assay [22], 16 µM (≈ 22.9 µg/mL); in [23], 4 µM (≈ 5.74 µg/mL); in assay [24], 4 µM (≈ 5.74 µg/mL); in [25], 4 µM (≈ 5.74 µg/mL). Besides, the MIC was 4 µM (≈ 5.74 µg/mL) in [26]; 16 µM (≈ 22.9 µg/mL) in assay [15]; 4 µM (≈ 5.74 µg/mL) in assay [27]; 8 µM (≈ 11.5 µg/mL) in [16]; 4 µM (≈ 5.74 µg/mL) in assay [28]; 8 µM (≈ 11.5 µg/mL) in assay [5]. Moreover, the MIC in [29] stood at 4 µM (≈ 5.74 µg/mL); in [19], 2 µM (≈ 2.87 µg/mL).
On to `CC[C@H](C)[C@H](NC(=O)[C@H](CCCCN)NC(=O)[C@H](CCCCN)NC(=O)[C@H](Cc1ccccc1)NC(=O)[C@H](CC(C)C)NC(=O)[C@H](CCCCN)NC(=O)[C@@H](N)CCCCN)C(=O)N[C@@H](CC(C)C)C(=O)N[C@@H](CCCCN)C(=O)N[C@@H](Cc1ccc(O)cc1)C(=O)N[C@@H](CC(C)C)C(=O)N[C@@H](C)C(=O)NCC(=O)N1CCC[C@H]1C(=O)N[C@@H](C)C(=O)N[C@@H](CCCCN)C(=O)N[C@@H](Cc1ccccc1)C(=O)N[C@@H](CC(C)C)C(=O)N[C@@H](Cc1cnc[nH]1)C(=O)N[C@@H](CO)C(=O)N[C@@H](C)C(=O)N[C@@H](CCCCN)C(=O)O` [KKLFKKILKYLAGPAKFLHSAK], for which the MIC in assay [30] came out at 3.54 µM (≈ 8.95 µg/mL); in assay [31], 1.77 µM (≈ 4.47 µg/mL); in assay [32], 3.54 µM (≈ 8.95 µg/mL).
With `CC[C@H](C)[C@H](NC(=O)[C@H](CCCCN)NC(=O)[C@H](CCCCN)NC(=O)[C@H](Cc1ccccc1)NC(=O)[C@H](CC(C)C)NC(=O)[C@H](CCCCN)NC(=O)[C@@H](N)CCCCN)C(=O)N[C@@H](CC(C)C)C(=O)N[C@@H](CCCCN)C(=O)N[C@@H](Cc1ccc(O)cc1)C(=O)N[C@@H](CC(C)C)C(=O)N[C@@H](CCCCN)C(=O)N[C@@H](Cc1ccccc1)C(=O)N[C@@H](CC(C)C)C(=O)N[C@@H](Cc1cnc[nH]1)C(=O)N[C@@H](CO)C(=O)N[C@@H](C)C(=O)N[C@@H](CCCCN)C(=O)N[C@@H](CCCCN)C(=O)N[C@@H](CC(=O)O)C(=O)N[C@@H](CCC(=O)O)C(=O)N[C@@H](CC(C)C)C(=O)O` [KKLFKKILKYLKFLHSAKKDEL], the figures for the MIC in assay [30], in assay [31] and in [32] were 3.54 µM (≈ 9.61 µg/mL), 1.77 µM (≈ 4.81 µg/mL) and 1.77 µM (≈ 4.81 µg/mL), respectively.
For `CC(C)C[C@H](NC(=O)[C@H](CCC(=O)O)NC(=O)[C@H](CC(=O)O)NC(=O)[C@H](CCCCN)NC(=O)[C@H](CC(C)C)NC(=O)[C@H](Cc1cnc[nH]1)NC(=O)[C@H](CCC(=O)O)NC(=O)[C@H](Cc1c[nH]c2ccccc12)NC(=O)[C@H](CC(=O)O)NC(=O)[C@H](CCCCN)NC(=O)[C@H](CC(C)C)NC(=O)[C@H](Cc1cnc[nH]1)NC(=O)[C@H](CCC(=O)O)NC(=O)[C@H](Cc1c[nH]c2ccccc12)NC(=O)[C@H](CC(=O)O)NC(=O)[C@H](CCCCN)NC(=O)[C@H](CC(C)C)NC(=O)[C@H](Cc1cnc[nH]1)NC(=O)[C@H](CCC(=O)O)NC(=O)[C@H](Cc1c[nH]c2ccccc12)NC(=O)[C@H](CC(=O)O)NC(=O)[C@@H](N)CCCCN)C(=O)O` [KDWEHLKDWEHLKDWEHLKDEL], the MIC in [30], in assay [31] and in assay [32] was at least 100 µM throughout.

For the origin of these results see DBAASP.
